# Tests used:
# [1] = test system: GP2D (KRAS G12D); experiment: Cell Proliferation Assay (CellTiter-Glo 2.0), GP2D; type: cell-based; conditions: GP2D (KRAS G12D) cells; 72 hours at 37° C., 5% CO2; read-out: Anti-proliferation IC50, GP2D (KRAS G12D)
# Procedure: (§1) Two thousand KRAS mutant cells per well are seeded in 384-well white plate and then treated with indicated compounds for 72 hours at 37° C. and 5% CO2. Cell proliferation is measured using CellTiter-Glo 2.0 luciferase-based ATP detection assay (Promega, Madison, WI) following the manufacturer's protocol. IC50 values are determined using Prism software (GraphPad Software, San Diego, CA).
# [2] = test system: SW620 (KRAS G12V); experiment: Cell Proliferation Assay (CellTiter-Glo 2.0), SW620; type: cell-based; conditions: Homo sapiens, SW-620; SW620 (KRAS G12V) cells; 72 hours at 37° C., 5% CO2; read-out: Anti-proliferation IC50, SW620 (KRAS G12V)
# Procedure: as §1
IC50 [2] [nM],SMILES,IC50 [1] [nM]
47,"C#Cc1c(F)ccc2cc(O)cc(-c3nc4c5c(nc(OC[C@@]67CCCN6C[C@H](F)C7)nc5c3F)N3CCCC[C@H]3CC4)c12 [compound 20, 5-ethynyl-6-fluoro-4-[(8aS)-4-fluoro-2-{[(2R,7aS)-2-fluorotetrahydro-1H-pyrrolizin-7a(5H)-yl]methoxy}-8,8a,9,10,11,12-hexahydro-7H-1,3,6,12a-tetraazabenzo[4,5]cyclohepta[1,2,3-de]naphthalen-5-yl]naphthalen-2-ol]",10
638,"C#Cc1c(F)ccc2cc(O)cc(-c3nc4c5c(nc(OC[C@@]67CCCN6C[C@H](F)C7)nc5c3F)N3CCOCC[C@@H]3CC4)c12 [compound 25, 5-ethynyl-6-fluoro-4-[(8aS)-4-fluoro-2-{[(2R,7aS)-2-fluorotetrahydro-1H-pyrrolizin-7a(5H)-yl]methoxy}-8,8a,9,10,12,13-hexahydro-7H-11-oxa-1,3,6,13a-tetraazanaphtho[1,8-ab]heptalen-5-yl]naphthalen-2-ol]",276
91,"C#Cc1c(F)ccc2cc(O)cc(-c3nc4c5c(nc(OCC6(CN(C)C)CC6(F)F)nc5c3F)N3CCCCC3CC4)c12 (centres unmarked) [compound 24, 4-[2-({1-[(dimethylamino)methyl]-2,2-difluorocyclopropyl}methoxy)-4-fluoro-8,8a,9,10,11,12-hexahydro-7H-1,3,6,12a-tetraazabenzo[4,5]cyclohepta[1,2,3-de]naphthalen-5-yl]-5-ethynyl-6-fluoronaphthalen-2-ol]",23
3.6,"C#Cc1c(F)ccc2cc(O)cc(-c3nc4c5c(nc(OC[C@@]67CCCN6C[C@H](F)C7)nc5c3F)N3CCCOC[C@H]3CC4)c12 [compound 1, 5-ethynyl-6-fluoro-4-[(8aR)-4-fluoro-2-{[(2R,7aS)-2-fluorotetrahydro-1H-pyrrolizin-7a(5H)-yl]methoxy}-7,8,8a,9,12,13-hexahydro-11H-10-oxa-1,3,6,13a-tetraazanaphtho[1,8-ab]heptalen-5-yl]naphthalen-2-ol]",1.1
304,"CCc1c(F)ccc2cc(O)cc(-c3nc4c5c(nc(OC[C@@]67CCCN6C[C@H](F)C7)nc5c3F)N3CCCOC[C@@H]3CC4)c12 [compound 4, 5-ethyl-6-fluoro-4-[(8aS)-4-fluoro-2-{[(2R,7aS)-2-fluorotetrahydro-1H-pyrrolizin-7a(5H)-yl]methoxy}-7,8,8a,9,12,13-hexahydro-11H-10-oxa-1,3,6,13a-tetraazanaphtho[1,8-ab]heptalen-5-yl]naphthalen-2-ol]",135
130,"C#Cc1c(F)ccc2cc(O)cc(-c3nc4c5c(nc(OC[C@@]67CCCN6C[C@H](F)C7)nc5c3F)N3CCOC[C@H]3C4)c12 [compound 18, 5-ethynyl-6-fluoro-4-((R)-4-fluoro-2-(((2R,7aS)-2-fluorotetrahydro-1H-pyrrolizin-7a(5H)-yl)methoxy)-7a,8,10,11-tetrahydro-7H-[1,4]oxazino[4,3-g]pyrimido[4,5,6-de][1,6]naphthyridin-5-yl)naphthalen-2-ol]",123
641,"C#Cc1c(F)ccc2cc(O)cc(-c3nc4c5c(nc(OC[C@@]67CCCN6C[C@H](F)C7)nc5c3F)N3CCCC[C@H]3COC4)c12 [compound 9, 5-ethynyl-6-fluoro-4-[(6aS)-1-fluoro-12-{[(2R,7aS)-2-fluorotetrahydro-1H-pyrrolizin-7a(5H)-yl]methoxy}-6,6a,7,8,9,10-hexahydro-4H-5-oxa-3,10a,11,13-tetraazabenzo[4,5]cycloocta[1,2,3-de]naphthalen-2-yl]naphthalen-2-ol]",102
1720,"C#Cc1c(F)ccc2cc(O)cc(-c3nc4c5c(nc(OC[C@@]67CCCN6C[C@H](F)C7)nc5c3F)N3CCCCC3=C4C)c12 [compound 30, 5-ethynyl-6-fluoro-4-(4-fluoro-2-{[(2R,7aS)-2-fluorotetrahydro-1H-pyrrolizin-7a(5H)-yl]methoxy}-7-methyl-8,9,10,11-tetrahydropyrido[1,2-g]pyrimido[4,5,6-de][1,6]naphthyridin-5-yl)naphthalen-2-ol]",819
20,"C#Cc1c(F)ccc2cc(O)cc(-c3nc4c5c(nc(OC[C@@]67CCCN6C[C@H](F)C7)nc5c3F)N3CCOCC[C@H]3CC4)c12 [compound 5, 5-ethynyl-6-fluoro-4-[(8aR)-4-fluoro-2-{[(2R,7aS)-2-fluorotetrahydro-1H-pyrrolizin-7a(5H)-yl]methoxy}-8,8a,9,10,12,13-hexahydro-7H-11-oxa-1,3,6,13a-tetraazanaphtho[1,8-ab]heptalen-5-yl]naphthalen-2-ol]",4.2
2040,"C=Cc1c(F)ccc2cc(O)cc(-c3nc4c5c(nc(OC[C@@]67CCCN6C[C@H](F)C7)nc5c3F)N3CCCCC3C(C#N)C4)c12 (stereo partly drawn) [compound 32, 5-(8-ethenyl-7-fluoro-3-hydroxynaphthalen-1-yl)-4-fluoro-2-{[(2R,7aS)-2-fluorotetrahydro-1H-pyrrolizin-7a(5H)-yl]methoxy}-8,8a,9,10,11,12-hexahydro-7H-1,3,6,12a-tetraazabenzo[4,5]cyclohepta[1,2,3-de]naphthalene-8-carbonitrile]",461
592,"C#Cc1c(F)ccc2cc(O)cc(-c3nc4c5c(nc(OC[C@@]67CCCN6C[C@H](F)C7)nc5c3F)N3CCCOC[C@@H]3CC4)c12 [compound 2, 5-ethynyl-6-fluoro-4-[(8aS)-4-fluoro-2-{[(2R,7aS)-2-fluorotetrahydro-1H-pyrrolizin-7a(5H)-yl]methoxy}-7,8,8a,9,12,13-hexahydro-11H-10-oxa-1,3,6,13a-tetraazanaphtho[1,8-ab]heptalen-5-yl]naphthalen-2-ol]",85
591,"CCc1c(F)ccc2cc(O)cc(-c3nc4c5c(nc(OC[C@@]67CCCN6C[C@H](F)C7)nc5c3F)N3CCCCC3C=C4)c12 (stereo partly drawn) [compound 31, 5-ethyl-6-fluoro-4-(4-fluoro-2-{[(2R,7aS)-2-fluorotetrahydro-1H-pyrrolizin-7a(5H)-yl]methoxy}-9,10,11,12-tetrahydro-8aH-1,3,6,12a-tetraazabenzo[4,5]cyclohepta[1,2,3-de]naphthalen-5-yl)naphthalen-2-ol]",136
11,"CCc1c(F)ccc2cc(O)cc(-c3nc4c5c(nc(OC[C@@]67CCCN6C[C@H](F)C7)nc5c3F)N3CCCOC[C@H]3CC4)c12 [compound 3, 5-ethyl-6-fluoro-4-[(8aR)-4-fluoro-2-{[(2R,7aS)-2-fluorotetrahydro-1H-pyrrolizin-7a(5H)-yl]methoxy}-7,8,8a,9,12,13-hexahydro-11H-10-oxa-1,3,6,13a-tetraazanaphtho[1,8-ab]heptalen-5-yl]naphthalen-2-ol]",6.3
39,"C#Cc1c(F)ccc2cc(O)cc(-c3nc4c5c(nc(OC[C@@]67CCCN6C[C@H](F)C7)nc5c3F)N3CCCC[C@H]3C4)c12 [compound 13, 5-ethynyl-6-fluoro-4-((S)-4-fluoro-2-(((2R,7aS)-2-fluorotetrahydro-1H-pyrrolizin-7a(5H)-yl)methoxy)-7,7a,8,9,10,11-hexahydropyrido[1,2-g]pyrimido[4,5,6-de][1,6]naphthyridin-5-yl)naphthalen-2-ol]",3.9
3000,"C#Cc1c(F)ccc2cc(O)cc(-c3nc4c5c(nc(OC[C@@]67CCCN6C[C@H](F)C7)nc5c3F)N3CCC[C@H]3COC4)c12 [compound 10, 5-ethynyl-6-fluoro-4-[(6aS)-1-fluoro-11-{[(2R,7aS)-2-fluorotetrahydro-1H-pyrrolizin-7a(5H)-yl]methoxy}-6a,7,8,9-tetrahydro-4H,6H-5-oxa-3,9a,10,12-tetraazacyclopenta[4,5]cycloocta[1,2,3-de]naphthalen-2-yl]naphthalen-2-ol]",3000
142,"C#Cc1c(F)ccc2cc(O)cc(-c3nc4c5c(nc(OC[C@@]67CCCN6C[C@H](F)C7)nc5c3F)N3CCCCC3C(O)C4)c12 (stereo partly drawn) [compound 29, 5-(8-ethynyl-7-fluoro-3-hydroxynaphthalen-1-yl)-4-fluoro-2-{[(2R,7aS)-2-fluorotetrahydro-1H-pyrrolizin-7a(5H)-yl]methoxy}-8,8a,9,10,11,12-hexahydro-7H-1,3,6,12a-tetraazabenzo[4,5]cyclohepta[1,2,3-de]naphthalen-8-ol]",14
32,"C#Cc1c(F)ccc2cc(O)cc(-c3nc4c5c(nc(OC[C@@]67CCCN6C[C@H](F)C7)nc5c3F)N3CCCC[C@@H]3CC4)c12 [compound 27, 5-ethynyl-6-fluoro-4-[(8aR)-4-fluoro-2-{[(2R,7aS)-2-fluorotetrahydro-1H-pyrrolizin-7a(5H)-yl]methoxy}-8,8a,9,10,11,12-hexahydro-7H-1,3,6,12a-tetraazabenzo[4,5]cyclohepta[1,2,3-de]naphthalen-5-yl]naphthalen-2-ol]",10
26,"CCc1c(F)ccc2cc(O)cc(-c3nc4c5c(nc(OC[C@@]67CCCN6C[C@H](F)C7)nc5c3F)N3CCOCC[C@H]3CC4)c12 [compound 6, 5-ethyl-6-fluoro-4-[(8aR)-4-fluoro-2-{[(2R,7aS)-2-fluorotetrahydro-1H-pyrrolizin-7a(5H)-yl]methoxy}-8,8a,9,10,12,13-hexahydro-7H-11-oxa-1,3,6,13a-tetraazanaphtho[1,8-ab]heptalen-5-yl]naphthalen-2-ol]",21
20,"C#Cc1c(F)ccc2cc(O)cc(-c3nc4c5c(nc(OC[C@@]67CCCN6C[C@H](F)C7)nc5c3F)N3CCCCC3C=C4)c12 (stereo partly drawn) [compound 21, 5-ethynyl-6-fluoro-4-(4-fluoro-2-{[(2R,7aS)-2-fluorotetrahydro-1H-pyrrolizin-7a(5H)-yl]methoxy}-9,10,11,12-tetrahydro-8aH-1,3,6,12a-tetraazabenzo[4,5]cyclohepta[1,2,3-de]naphthalen-5-yl)naphthalen-2-ol]",2.9

# From US20260327246A1, “FUSED RING KRAS INHIBITORS FOR TREATING DISEASE” (BLOSSOMHILL THERAPEUTICS, INC., priority 2023, published 2026)
